ChEMBL document CHEMBL1138608, “The discovery of potent, selective, and orally bioavailable PDE9 inhibitors as potential hypoglycemic agents” (Bioorg Med Chem Lett, 2009)
One block for each molecule: values may come before it.

Legend:
[1] = target: Dual specificity calcium/calmodulin-dependent 3',5'-cyclic nucleotide phosphodiesterase 1B (Homo sapiens, UniProt Q01064); experiment: Inhibition of PDE1b
[2] = target: High affinity cGMP-specific 3',5'-cyclic phosphodiesterase 9A (Homo sapiens, UniProt O76083); experiment: Inhibition of human recombinant PDE9 expressed in SF9 cells by scintillation proximity assay
[3] = target: Dual specificity calcium/calmodulin-dependent 3',5'-cyclic nucleotide phosphodiesterase 1A (Homo sapiens, UniProt P54750); experiment: Inhibition of PDE1a
[4] = target: Dual specificity calcium/calmodulin-dependent 3',5'-cyclic nucleotide phosphodiesterase 1C (Homo sapiens, UniProt Q14123); experiment: Inhibition of PDE1c
Dual specificity calcium/calmodulin-dependent 3',5'-cyclic nucleotide phosphodiesterase 1C, sequence (Q14123 whole entry): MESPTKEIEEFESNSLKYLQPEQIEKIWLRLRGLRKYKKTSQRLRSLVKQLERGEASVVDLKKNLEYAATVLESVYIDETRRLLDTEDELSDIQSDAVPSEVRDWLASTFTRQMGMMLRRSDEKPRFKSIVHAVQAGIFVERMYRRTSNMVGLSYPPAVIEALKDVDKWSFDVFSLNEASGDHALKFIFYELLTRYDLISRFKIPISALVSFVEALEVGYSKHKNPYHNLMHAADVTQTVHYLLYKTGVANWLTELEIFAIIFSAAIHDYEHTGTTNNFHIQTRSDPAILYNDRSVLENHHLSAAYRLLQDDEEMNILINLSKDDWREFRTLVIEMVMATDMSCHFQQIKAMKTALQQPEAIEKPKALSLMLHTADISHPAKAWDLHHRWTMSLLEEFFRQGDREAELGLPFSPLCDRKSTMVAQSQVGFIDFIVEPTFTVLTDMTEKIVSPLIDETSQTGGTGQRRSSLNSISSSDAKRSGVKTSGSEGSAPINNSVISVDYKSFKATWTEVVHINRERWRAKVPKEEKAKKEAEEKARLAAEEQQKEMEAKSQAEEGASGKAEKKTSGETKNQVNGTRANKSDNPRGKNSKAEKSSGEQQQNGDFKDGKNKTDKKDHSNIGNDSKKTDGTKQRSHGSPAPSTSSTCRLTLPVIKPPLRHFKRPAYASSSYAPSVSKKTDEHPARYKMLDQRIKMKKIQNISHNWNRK

[5] = target: High affinity cAMP-specific and IBMX-insensitive 3',5'-cyclic phosphodiesterase 8B (Homo sapiens, UniProt O95263); experiment: Inhibition of PDE8b
[6] = Inhibition of PDE11
[7] = target: 3',5'-cyclic-AMP phosphodiesterase 4C (Homo sapiens, UniProt Q08493); experiment: Inhibition of PDE4c
3',5'-cyclic-AMP phosphodiesterase 4C, sequence (Q08493 whole entry): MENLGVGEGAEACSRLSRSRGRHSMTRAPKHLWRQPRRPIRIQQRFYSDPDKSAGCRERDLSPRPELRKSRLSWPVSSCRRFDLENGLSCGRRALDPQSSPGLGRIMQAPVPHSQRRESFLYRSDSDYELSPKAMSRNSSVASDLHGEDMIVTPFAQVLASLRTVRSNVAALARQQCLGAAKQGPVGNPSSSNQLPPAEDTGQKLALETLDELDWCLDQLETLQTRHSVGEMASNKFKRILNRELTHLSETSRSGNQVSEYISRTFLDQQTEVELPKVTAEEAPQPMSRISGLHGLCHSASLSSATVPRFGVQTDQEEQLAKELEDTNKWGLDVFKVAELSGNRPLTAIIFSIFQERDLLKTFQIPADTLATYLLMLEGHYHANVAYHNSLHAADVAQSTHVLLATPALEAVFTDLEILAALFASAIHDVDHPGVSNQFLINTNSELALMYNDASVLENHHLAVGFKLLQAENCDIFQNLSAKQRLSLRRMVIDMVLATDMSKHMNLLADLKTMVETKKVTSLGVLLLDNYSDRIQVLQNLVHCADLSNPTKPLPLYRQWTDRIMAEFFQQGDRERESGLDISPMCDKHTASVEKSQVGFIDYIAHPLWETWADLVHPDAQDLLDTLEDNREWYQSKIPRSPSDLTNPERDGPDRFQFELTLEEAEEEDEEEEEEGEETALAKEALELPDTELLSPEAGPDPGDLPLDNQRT

[8] = target: High affinity 3',5'-cyclic-AMP phosphodiesterase 7A (Homo sapiens, UniProt Q13946); experiment: Inhibition of PDE7a
High affinity 3',5'-cyclic-AMP phosphodiesterase 7A, sequence (Q13946 whole entry): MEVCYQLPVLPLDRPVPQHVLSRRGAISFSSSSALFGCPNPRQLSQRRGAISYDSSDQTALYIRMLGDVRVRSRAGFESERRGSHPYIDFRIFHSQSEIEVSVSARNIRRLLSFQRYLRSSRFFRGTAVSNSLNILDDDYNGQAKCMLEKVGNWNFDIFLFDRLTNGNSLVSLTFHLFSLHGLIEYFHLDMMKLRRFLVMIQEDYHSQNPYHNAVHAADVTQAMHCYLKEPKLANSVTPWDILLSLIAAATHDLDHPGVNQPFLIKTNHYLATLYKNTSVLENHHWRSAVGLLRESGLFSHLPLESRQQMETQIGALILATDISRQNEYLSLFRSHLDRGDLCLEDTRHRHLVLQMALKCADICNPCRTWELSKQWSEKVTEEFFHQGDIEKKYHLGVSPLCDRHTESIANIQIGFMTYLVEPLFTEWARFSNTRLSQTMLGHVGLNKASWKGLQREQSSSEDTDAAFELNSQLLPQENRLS

[9] = Inhibition of PDE10
[10] = Inhibition of PDE2
[11] = target: cGMP-inhibited 3',5'-cyclic phosphodiesterase 3A (Homo sapiens, UniProt Q14432); experiment: Inhibition of PDE3a
[12] = target: 3',5'-cyclic-AMP phosphodiesterase 4D (Homo sapiens, UniProt Q08499); experiment: Inhibition of PDE4d
[13] = target: High affinity cAMP-specific and IBMX-insensitive 3',5'-cyclic phosphodiesterase 8A (Homo sapiens, UniProt O60658); experiment: Inhibition of PDE8a
[14] = target: 3',5'-cyclic-AMP phosphodiesterase 4A (Homo sapiens, UniProt P27815); experiment: Inhibition of PDE4a
3',5'-cyclic-AMP phosphodiesterase 4A, sequence (P27815 whole entry): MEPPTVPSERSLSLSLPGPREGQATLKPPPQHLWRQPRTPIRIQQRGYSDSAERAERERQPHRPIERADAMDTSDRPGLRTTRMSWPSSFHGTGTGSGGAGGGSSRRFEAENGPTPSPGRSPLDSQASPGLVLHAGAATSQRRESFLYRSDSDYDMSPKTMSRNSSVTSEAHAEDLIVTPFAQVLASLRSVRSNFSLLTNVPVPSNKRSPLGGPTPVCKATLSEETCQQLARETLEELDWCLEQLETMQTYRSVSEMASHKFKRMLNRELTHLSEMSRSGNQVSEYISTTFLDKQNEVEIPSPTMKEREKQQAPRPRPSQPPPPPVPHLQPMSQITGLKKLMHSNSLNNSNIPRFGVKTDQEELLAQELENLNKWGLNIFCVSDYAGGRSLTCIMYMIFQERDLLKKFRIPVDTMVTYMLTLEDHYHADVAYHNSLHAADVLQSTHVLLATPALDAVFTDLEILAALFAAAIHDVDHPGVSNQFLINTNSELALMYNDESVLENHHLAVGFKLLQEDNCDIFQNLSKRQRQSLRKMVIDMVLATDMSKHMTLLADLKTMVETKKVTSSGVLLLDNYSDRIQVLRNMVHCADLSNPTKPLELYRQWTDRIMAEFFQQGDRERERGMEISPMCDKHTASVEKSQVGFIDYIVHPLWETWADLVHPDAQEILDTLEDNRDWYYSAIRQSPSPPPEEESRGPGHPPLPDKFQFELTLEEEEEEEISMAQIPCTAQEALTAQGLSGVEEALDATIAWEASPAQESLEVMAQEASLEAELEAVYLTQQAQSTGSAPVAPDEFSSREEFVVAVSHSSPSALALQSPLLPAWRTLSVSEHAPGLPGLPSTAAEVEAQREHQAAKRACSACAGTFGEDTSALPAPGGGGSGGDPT

[15] = Inhibition of PDE6
[16] = target: cGMP-inhibited 3',5'-cyclic phosphodiesterase 3B (Homo sapiens, UniProt Q13370); experiment: Inhibition of PDE3b
cGMP-inhibited 3',5'-cyclic phosphodiesterase 3B, sequence (Q13370 whole entry): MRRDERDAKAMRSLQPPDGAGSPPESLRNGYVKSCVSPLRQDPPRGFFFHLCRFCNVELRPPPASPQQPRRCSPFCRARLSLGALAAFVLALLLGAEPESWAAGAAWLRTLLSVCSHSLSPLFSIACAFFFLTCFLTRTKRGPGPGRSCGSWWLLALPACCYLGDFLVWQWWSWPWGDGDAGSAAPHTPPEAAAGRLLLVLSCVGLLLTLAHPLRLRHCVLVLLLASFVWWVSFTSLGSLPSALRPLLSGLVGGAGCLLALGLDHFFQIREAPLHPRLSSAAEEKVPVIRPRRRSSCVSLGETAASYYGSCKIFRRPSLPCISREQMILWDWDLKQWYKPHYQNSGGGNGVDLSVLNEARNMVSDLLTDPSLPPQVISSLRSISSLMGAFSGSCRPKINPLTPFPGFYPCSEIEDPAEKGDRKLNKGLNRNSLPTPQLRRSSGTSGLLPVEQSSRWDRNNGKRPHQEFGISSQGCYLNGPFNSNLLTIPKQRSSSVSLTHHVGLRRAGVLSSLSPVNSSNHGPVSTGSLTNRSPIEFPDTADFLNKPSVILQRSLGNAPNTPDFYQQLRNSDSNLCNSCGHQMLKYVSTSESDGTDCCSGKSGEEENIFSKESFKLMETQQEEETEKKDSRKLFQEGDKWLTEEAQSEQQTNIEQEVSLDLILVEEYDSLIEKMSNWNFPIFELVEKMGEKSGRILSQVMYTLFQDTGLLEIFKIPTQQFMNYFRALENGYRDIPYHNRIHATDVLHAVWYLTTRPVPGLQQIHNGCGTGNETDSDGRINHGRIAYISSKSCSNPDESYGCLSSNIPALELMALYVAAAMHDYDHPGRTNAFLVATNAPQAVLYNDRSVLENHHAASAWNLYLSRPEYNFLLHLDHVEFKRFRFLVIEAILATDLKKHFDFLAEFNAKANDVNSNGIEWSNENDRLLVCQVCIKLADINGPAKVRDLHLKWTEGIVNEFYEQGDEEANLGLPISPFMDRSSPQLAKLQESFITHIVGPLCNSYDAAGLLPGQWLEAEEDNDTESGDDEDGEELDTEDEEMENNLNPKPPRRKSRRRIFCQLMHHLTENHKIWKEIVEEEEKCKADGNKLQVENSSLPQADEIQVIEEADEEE

[17] = target: cGMP-specific 3',5'-cyclic phosphodiesterase (Homo sapiens, UniProt O76074); experiment: Inhibition of PDE5
[18] = target: 3',5'-cyclic-AMP phosphodiesterase 7B (Homo sapiens, UniProt Q9NP56); experiment: Inhibition of PDE7b
[19] = target: 3',5'-cyclic-AMP phosphodiesterase 4B (Homo sapiens, UniProt Q07343); experiment: Inhibition of PDE4b
3',5'-cyclic-AMP phosphodiesterase 4B, sequence (Q07343 whole entry): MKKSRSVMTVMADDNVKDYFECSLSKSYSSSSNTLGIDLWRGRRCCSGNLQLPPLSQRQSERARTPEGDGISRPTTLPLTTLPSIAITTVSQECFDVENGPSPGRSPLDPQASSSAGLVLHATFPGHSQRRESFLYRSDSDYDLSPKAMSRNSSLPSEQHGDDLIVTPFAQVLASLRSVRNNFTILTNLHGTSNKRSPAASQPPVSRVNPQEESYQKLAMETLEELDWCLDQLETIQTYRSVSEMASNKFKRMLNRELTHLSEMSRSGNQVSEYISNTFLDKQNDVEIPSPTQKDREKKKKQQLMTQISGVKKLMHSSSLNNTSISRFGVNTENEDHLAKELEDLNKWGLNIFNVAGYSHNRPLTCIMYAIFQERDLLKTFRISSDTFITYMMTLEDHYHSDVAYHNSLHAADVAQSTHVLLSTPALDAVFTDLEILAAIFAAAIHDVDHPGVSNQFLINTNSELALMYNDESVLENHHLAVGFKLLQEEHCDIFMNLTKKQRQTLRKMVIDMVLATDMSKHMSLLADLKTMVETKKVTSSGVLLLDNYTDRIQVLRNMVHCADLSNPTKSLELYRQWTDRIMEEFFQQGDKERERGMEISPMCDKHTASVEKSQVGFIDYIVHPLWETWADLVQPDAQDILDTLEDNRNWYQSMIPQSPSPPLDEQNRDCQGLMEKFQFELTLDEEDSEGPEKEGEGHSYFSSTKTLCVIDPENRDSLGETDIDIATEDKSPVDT

[20] = Apparent permeability across MDCK cells; details: dog
Mus musculus [21] = experiment: Reduction of glucose level in ob/ob mouse at 100 mg/kg, po administered by subchronic dosing for 4 days relative to control (RVb 406 mg/dl); type: functional; parameters: scale not given: the % may be the effect or the level left
Mus musculus [22] = experiment: Reduction of glucose level in ob/ob mouse at 500 mg/kg, po administered by subchronic dosing for 4 days (RVb 406 mg/dl); type: functional; parameters: scale not given: the % may be the effect or the level left
Mus musculus [23] = experiment: Reduction of insulin level in ob/ob mouse at 100 mg/kg, po administered by subchronic dosing for 4 days (RVb 23 ng/mL); type: functional; parameters: scale not given: the % may be the effect or the level left
Mus musculus [24] = experiment: Free plasma concentration at terminal bleed in ob/ob mouse at 250 mg/kg, po administered by subchronic dosing for 4 days after 3 hrs of last dose
Mus musculus [25] = experiment: Reduction of insulin level in ob/ob mouse at 250 mg/kg, po administered by subchronic dosing for 4 days (RVb 23 ng/mL); type: functional; parameters: scale not given: the % may be the effect or the level left
Mus musculus [26] = experiment: Reduction of glucose level in ob/ob mouse at 250 mg/kg, po administered by subchronic dosing for 4 days (RVb 406 mg/dl); type: functional; parameters: scale not given: the % may be the effect or the level left
Mus musculus [27] = experiment: Free plasma concentration at terminal bleed in ob/ob mouse at 100 mg/kg, po administered by subchronic dosing for 4 days after 3 hrs of last dose
Mus musculus [28] = experiment: Reduction of insulin level in ob/ob mouse at 500 mg/kg, po administered by subchronic dosing for 4 days (RVb 23 ng/mL); type: functional; parameters: scale not given: the % may be the effect or the level left
Mus musculus [29] = experiment: Reduction of body weight in ob/ob mouse at 100 mg/kg, po administered by subchronic dosing for 4 days (RVb 44 g); type: functional; parameters: scale not given: the % may be the effect or the level left
Mus musculus [30] = experiment: Free plasma concentration at terminal bleed in ob/ob mouse at 500 mg/kg, po administered by subchronic dosing for 4 days after 3 hrs of last dose
Mus musculus [31] = experiment: Reduction of body weight in ob/ob mouse at 250 mg/kg, po administered by subchronic dosing for 4 days (RVb 44 g); type: functional; parameters: scale not given: the % may be the effect or the level left
Mus musculus [32] = experiment: Reduction of body weight in ob/ob mouse at 500 mg/kg, po administered by subchronic dosing for 4 days (RVb 44 g); type: functional; parameters: scale not given: the % may be the effect or the level left
in vivo = details: rat
[33] = Oral bioavailability in rat; details: in vivo
[34] = Volume of distribution at steady state in rat; details: in vivo

- IC50 [1]: 7810 nM
- IC50 [2]: 530 nM
- IC50 [3]: 790 nM
- IC50 [4]: 970 nM
Structure (SMILES): CC(C)c1nn(C)c2c(=O)[nH]c(Cc3ccccc3OCCN3CCOCC3)nc12

- IC50 [5]: > 10000 nM
- IC50 [6]: 8400 nM
- IC50 [7]: > 10000 nM
- IC50 [8]: > 10000 nM
- IC50 [9]: > 10000 nM
- IC50 [10]: > 10000 nM
- IC50 [11]: > 10000 nM
- IC50 [1]: 9800 nM
- IC50 [12]: > 10000 nM
- IC50 [13]: > 10000 nM
- IC50 [2]: 35 nM
- IC50 [3]: 7700 nM
- IC50 [14]: > 10000 nM
- IC50 [15]: > 10000 nM
- IC50 [16]: > 10000 nM
- IC50 [17]: 1500 nM
- IC50 [18]: > 10000 nM
- IC50 [4]: 4400 nM
- IC50 [19]: > 10000 nM
Structure (SMILES): CC(C)c1n[nH]c2c(=O)[nH]c(C[C@@H]3CCCC[C@H]3Nc3ncccn3)nc12

- IC50 [1]: > 10000 nM
- IC50 [2]: 23 nM
- IC50 [3]: > 10000 nM
- IC50 [4]: 7600 nM
Structure (SMILES): Cc1ccc(N[C@@H]2CCCC[C@H]2Cc2nc3c(C(C)C)[nH]nc3c(=O)[nH]2)nn1

- IC50 [1]: > 10000 nM
- IC50 [2]: 19 nM
- IC50 [3]: > 10000 nM
- IC50 [4]: 3100 nM
Structure (SMILES): CC(C)c1[nH]nc2c(=O)[nH]c(C[C@@H]3CCCC[C@H]3NC(=O)CC3CCOCC3)nc12

- Papp [20]: 10.8 ×10⁻⁶ cm/s
- IC50 [1]: 2650 nM
- IC50 [2]: 56 nM
- IC50 [3]: 2500 nM
- IC50 [4]: 520 nM
Structure (SMILES): CC(C)c1n[nH]c2c(=O)[nH]c(Cc3ccccc3OC(F)(F)F)nc12

- IC50 [1]: > 10000 nM
- IC50 [2]: 87 nM
- IC50 [3]: > 10000 nM
- IC50 [4]: 2050 nM
Structure (SMILES): CC(C)c1n[nH]c2c(=O)[nH]c(C[C@@H]3CCCC[C@H]3OCCN3CCOCC3)nc12

- IC50 [5]: > 10000 nM
- IC50 [6]: > 10000 nM
- IC50 [7]: > 10000 nM
- IC50 [8]: > 10000 nM
- IC50 [9]: > 10000 nM
- IC50 [10]: 8200 nM
- IC50 [11]: > 10000 nM
- IC50 [1]: 4950 nM
- IC50 [12]: > 10000 nM
- IC50 [13]: > 10000 nM
- IC50 [2]: 41 nM
- IC50 [3]: 3900 nM
- IC50 [14]: > 10000 nM
- Cp(f) (Mus musculus [24]; mouse, in vivo, po, 250 mg/kg, 3 h): 243 nM
- IC50 [15]: > 10000 nM
- IC50 [16]: > 10000 nM
- IC50 [17]: 5200 nM
- IC50 [18]: > 10000 nM
- Cp(f) (Mus musculus [27]; mouse, in vivo, po, 100 mg/kg, 3 h): 140 nM
- IC50 [4]: 1130 nM
- Cp(f) (Mus musculus [30]; mouse, in vivo, po, 500 mg/kg, 3 h): 361 nM
- IC50 [19]: > 10000 nM
Structure (SMILES): CC(C)c1n[nH]c2c(=O)[nH]c(Cc3ccccc3OCCN3CCOCC3)nc12
- Activity (Mus musculus [21]): -32%
- Activity (Mus musculus [22]): -55%
- Activity (Mus musculus [23]): -35%
- Activity (Mus musculus [25]): -35%
- Activity (Mus musculus [26]): -40%
- Activity (Mus musculus [28]): -59%
- Activity (Mus musculus [29]): -4.3%
- Activity (Mus musculus [31]): -6.4%
- Activity (Mus musculus [32]): -11%

- IC50 [1]: 2630 nM
- IC50 [2]: 82 nM
- IC50 [3]: 1430 nM
- IC50 [4]: 1340 nM
Structure (SMILES): CC(C)c1n[nH]c2c(=O)[nH]c(Cc3ccccc3OCc3ccccc3)nc12

- IC50 [5]: > 1000 nM
- IC50 [6]: > 1000 nM
- IC50 [7]: > 1000 nM
- IC50 [8]: > 1000 nM
- IC50 [9]: > 1000 nM
- IC50 [10]: > 1000 nM
- IC50 [11]: > 1000 nM
- IC50 [1]: > 10000 nM
- IC50 [12]: > 1000 nM
- IC50 [13]: > 1000 nM
- IC50 [2]: 7 nM
- IC50 [3]: > 10000 nM
- IC50 [14]: > 1000 nM
- IC50 (Mus musculus [24]; Mus musculus, Plasma): > 1000 nM
- IC50 [15]: > 1000 nM
- IC50 [16]: > 1000 nM
- IC50 [17]: 370 nM
- IC50 [18]: > 1000 nM
- IC50 (Mus musculus [27]; Mus musculus, Plasma): > 1000 nM
- clearance (in vivo): 19.8 mL/min/kg
- bioavailability [33]: 100%
- Vd [34]: 0.12 L/kg
- IC50 [4]: > 10000 nM
- IC50 (Mus musculus [30]; Mus musculus, Plasma): > 1000 nM
- IC50 [19]: > 1000 nM
Structure (SMILES): CC(C)c1n[nH]c2c(=O)[nH]c(C[C@@H]3CCCC[C@H]3Nc3ncc(C(=O)O)c(C(F)(F)F)n3)nc12

- IC50 [1]: 38 nM
- IC50 [3]: 54 nM
- IC50 [4]: 4 nM
Structure (SMILES): CC(C)c1n[nH]c2c(=O)[nH]c(Cc3cccc(Cl)c3)nc12

- IC50 [1]: > 10000 nM
- IC50 [2]: 36 nM
- IC50 [3]: > 10000 nM
- IC50 [4]: > 10000 nM
Structure (SMILES): CC(C)c1n[nH]c2c(=O)[nH]c(C[C@@H]3CCCC[C@H]3NC(=O)CN3CCCC3)nc12

- Papp [20]: 0.7 ×10⁻⁶ cm/s
- IC50 [1]: > 10000 nM
- IC50 [2]: 46 nM
- IC50 [3]: > 10000 nM
- IC50 [4]: 4200 nM
Structure (SMILES): CC(C)c1[nH]nc2c(=O)[nH]c(C[C@@H]3CCCC[C@H]3NC(=O)NCCCN3CCOCC3)nc12
